According to PubChem BioAssay (NCI):
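Interpolation was linear, between the two tested concentrations surrounding the appropriate level; five concentrations were tested over 48 hours in 96-well plates. Here, GI50 denotes the concentration required for 50% inhibition of growth. The concentration for full growth arrest is given as TGI.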

Key:
Test in all cases: NCI-60 cell line screen, 48 h
[1] = tested on: HOP-62 NSCLC
[2] = tested on: SK-MEL-5 melanoma
[3] = tested on: OVCAR-3 ovarian
[4] = tested on: HCC-2998 colon
[5] = tested on: NCI-H226 lung
[6] = tested on: NCI/ADR-RES ovarian
[7] = tested on: MDA-MB-435
[8] = tested on: SNB-75 CNS
[9] = tested on: SN12C renal
[10] = tested on: HL-60(TB) leukemia
[11] = tested on: SK-MEL-2 melanoma
[12] = tested on: NCI-H23 lung
[13] = tested on: 786-0 renal
[14] = tested on: OVCAR-4 ovarian
[15] = tested on: SF-295 CNS
[16] = tested on: A498 renal
[17] = tested on: MALME-3M melanoma
[18] = tested on: NCI-H522 lung
[19] = tested on: EKVX NSCLC
[20] = tested on: PC-3 prostate
[21] = tested on: HT29 colon
[22] = tested on: CCRF-CEM leukemia
[23] = tested on: SNB-19 CNS
[24] = tested on: KM12 colon
[25] = tested on: RXF 393 renal
[26] = tested on: BT-549 breast
[27] = tested on: U251 CNS
[28] = tested on: HCT-116 colon
[29] = tested on: OVCAR-5 ovarian
[30] = tested on: SF-539 CNS
[31] = tested on: A549 NSCLC
[32] = tested on: UACC-62 melanoma
[33] = tested on: TK-10 renal
[34] = tested on: MDA-MB-231 breast
[35] = tested on: SK-MEL-28 melanoma
[36] = tested on: M14 melanoma
[37] = tested on: NCI-H460 lung
[38] = tested on: MCF7 breast
[39] = tested on: HOP-92 NSCLC
[40] = tested on: HCT-15 colon
[41] = tested on: MOLT-4 leukemia
[42] = tested on: SK-OV-3 ovarian
[43] = tested on: LOX IMVI melanoma
[44] = tested on: UO-31 renal
[45] = tested on: UACC-257 melanoma
[46] = tested on: OVCAR-8 ovarian
[47] = tested on: T-47D breast
[48] = tested on: DU-145 prostate
[49] = tested on: SR leukemia
[50] = tested on: HS 578T breast
[51] = tested on: COLO 205 colon
[52] = tested on: K-562 leukemia
[53] = tested on: SF-268 CNS
[54] = tested on: CAKI-1 renal
[55] = tested on: ACHN renal
[56] = tested on: RPMI-8226 leukemia
[57] = tested on: SW-620 colon
[58] = tested on: IGROV1 ovarian

Structure (SMILES): CN(C)c1ccc(N=Nc2ccc(Br)cn2)c(O)c1
- GI50 [1]: 389 nM
- TGI [1]: > 73600 nM
- GI50 [2]: 774 nM
- TGI [2]: 4350 nM
- GI50 [3]: 320 nM
- TGI [3]: > 31000 nM
- GI50 [4]: 476 nM
- TGI [4]: > 100000 nM
- GI50 [5]: 1080 nM
- TGI [5]: 7680 nM
- GI50 [6]: 362 nM
- TGI [6]: 12500 nM
- GI50 [7]: 1930 nM
- TGI [7]: > 100000 nM
- GI50 [8]: 1550 nM
- TGI [8]: > 82600 nM
- GI50 [9]: 704 nM
- TGI [9]: > 100000 nM
- GI50 [10]: 260 nM
- TGI [10]: 2440 nM
- GI50 [11]: 5280 nM
- TGI [11]: > 100000 nM
- GI50 [12]: 1130 nM
- TGI [12]: > 100000 nM
- GI50 [13]: 266 nM
- TGI [13]: > 100000 nM
- GI50 [14]: 186 nM
- TGI [14]: 4890 nM
- GI50 [15]: 635 nM
- TGI [15]: > 100000 nM
- GI50 [16]: 3210 nM
- TGI [16]: 66700 nM
- GI50 [17]: 2650 nM
- TGI [17]: > 100000 nM
- GI50 [18]: 983 nM
- TGI [18]: > 28600 nM
- GI50 [19]: 382 nM
- TGI [19]: > 100000 nM
- GI50 [20]: 556 nM
- TGI [20]: > 100000 nM
- GI50 [21]: 603 nM
- TGI [21]: > 100000 nM
- GI50 [22]: 227 nM
- GI50 [23]: 641 nM
- TGI [23]: > 100000 nM
- GI50 [24]: 854 nM
- TGI [24]: > 100000 nM
- GI50 [25]: 620 nM
- TGI [25]: 7060 nM
- GI50 [26]: 737 nM
- TGI [26]: > 100000 nM
- GI50 [27]: 373 nM
- TGI [27]: > 100000 nM
- GI50 [28]: 325 nM
- TGI [28]: > 40000 nM
- GI50 [29]: 1420 nM
- TGI [29]: > 100000 nM
- GI50 [30]: 673 nM
- TGI [30]: 8800 nM
- GI50 [31]: 682 nM
- TGI [31]: > 100000 nM
- GI50 [32]: 737 nM
- TGI [32]: 8350 nM
- GI50 [33]: 681 nM
- TGI [33]: > 100000 nM
- GI50 [34]: 551 nM
- TGI [34]: > 100000 nM
- GI50 [35]: 2050 nM
- TGI [35]: > 100000 nM
- GI50 [36]: 691 nM
- TGI [36]: > 21300 nM
- GI50 [37]: 281 nM
- TGI [37]: > 34700 nM
- GI50 [38]: 385 nM
- TGI [38]: > 100000 nM
- GI50 [39]: 1310 nM
- TGI [39]: > 100000 nM
- GI50 [40]: 171 nM
- TGI [40]: > 100000 nM
- GI50 [41]: 294 nM
- TGI [41]: > 46700 nM
- GI50 [42]: 774 nM
- TGI [42]: > 100000 nM
- GI50 [43]: 294 nM
- GI50 [44]: 160 nM
- TGI [44]: > 100000 nM
- GI50 [45]: 2270 nM
- TGI [45]: 7840 nM
- GI50 [46]: 549 nM
- TGI [46]: > 100000 nM
- GI50 [47]: 568 nM
- TGI [47]: > 100000 nM
- GI50 [48]: 653 nM
- TGI [48]: > 100000 nM
- GI50 [49]: 149 nM
- TGI [49]: > 34000 nM
- GI50 [50]: 5780 nM
- TGI [50]: > 100000 nM
- GI50 [51]: 373 nM
- TGI [51]: > 32800 nM
- GI50 [52]: 471 nM
- TGI [52]: > 100000 nM
- GI50 [53]: 404 nM
- TGI [53]: > 100000 nM
- GI50 [54]: 790 nM
- TGI [54]: > 100000 nM
- GI50 [55]: 361 nM
- TGI [55]: > 100000 nM
- GI50 [56]: 528 nM
- TGI [56]: > 100000 nM
- GI50 [57]: 565 nM
- TGI [57]: > 100000 nM
- GI50 [58]: 359 nM
- TGI [58]: > 100000 nM
